Data taken from ChEMBL document CHEMBL4507280 (2021).

Assays:
[1] = molecular target: Cyclin-dependent kinase 15 (Homo sapiens) (UniProt Q96Q40); conditions: Compound concentration 1000.0 nM
[2] = molecular target: GABA-A receptor; anion channel (Rattus norvegicus) (UniProt O09028+P15431+P18506+P18508+P19969+P20236+P23574+P23576+P28471+P28473+P30191+P62813+P63079+P63138+Q91ZM7+Q9ES14); conditions: Compound concentration 10.0 uM
[3] = molecular target: Calcium/calmodulin-dependent protein kinase kinase 1 (Homo sapiens) (UniProt Q8N5S9); conditions: Compound concentration 1000.0 nM
[4] = tested on: Mast/stem cell growth factor receptor Kit (Homo sapiens), P10721 [L576P]; conditions: Compound concentration 1000.0 nM
[5] = molecular target: T1, Alpha-1B adrenergic receptor (Homo sapiens) (UniProt P35368); conditions: Compound concentration 10.0 uM
T1 sequence (whole entry): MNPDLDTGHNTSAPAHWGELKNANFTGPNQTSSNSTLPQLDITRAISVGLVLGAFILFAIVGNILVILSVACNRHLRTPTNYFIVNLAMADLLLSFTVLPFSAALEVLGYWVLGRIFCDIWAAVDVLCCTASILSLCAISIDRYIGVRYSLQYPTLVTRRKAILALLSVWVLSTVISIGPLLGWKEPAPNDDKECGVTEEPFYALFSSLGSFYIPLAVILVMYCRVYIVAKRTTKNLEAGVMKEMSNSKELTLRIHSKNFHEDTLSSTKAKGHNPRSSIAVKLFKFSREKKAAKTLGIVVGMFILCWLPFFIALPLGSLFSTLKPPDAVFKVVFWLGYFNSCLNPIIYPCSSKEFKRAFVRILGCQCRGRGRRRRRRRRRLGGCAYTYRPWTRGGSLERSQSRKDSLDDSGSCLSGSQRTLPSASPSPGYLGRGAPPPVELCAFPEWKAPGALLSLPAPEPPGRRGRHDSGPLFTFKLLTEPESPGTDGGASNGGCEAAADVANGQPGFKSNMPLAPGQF

[6] = molecular target: Homeodomain-interacting protein kinase 1 (Homo sapiens) (UniProt Q86Z02); conditions: Compound concentration 1000.0 nM
[7] = molecular target: Cyclin-dependent kinase-like 5 (Homo sapiens) (UniProt O76039); conditions: Compound concentration 1000.0 nM
[8] = tested on: Epidermal growth factor receptor (Homo sapiens), P00533 [G719C]; conditions: Compound concentration 1000.0 nM
[9] = molecular target: BMP-2-inducible protein kinase (Homo sapiens) (UniProt Q9NSY1); conditions: Compound concentration 1000.0 nM
[10] = molecular target: Tyrosine-protein kinase JAK3 (Homo sapiens) (UniProt P52333); conditions: Compound concentration 1000.0 nM
[11] = molecular target: Death-associated protein kinase 2 (Homo sapiens) (UniProt Q9UIK4); conditions: Compound concentration 1000.0 nM
[12] = molecular target: Serine/threonine-protein kinase haspin (Homo sapiens) (UniProt Q8TF76); conditions: Compound concentration 1000.0 nM
[13] = molecular target: Atypical kinase COQ8A, mitochondrial (Homo sapiens) (UniProt Q8NI60); conditions: Compound concentration 1000.0 nM
[14] = molecular target: Serine/threonine-protein kinase D1 (Homo sapiens) (UniProt Q15139); conditions: Compound concentration 1000.0 nM
[15] = molecular target: Ephrin type-A receptor 6 (Homo sapiens) (UniProt Q9UF33); conditions: Compound concentration 1000.0 nM
[16] = molecular target: Calcium/calmodulin-dependent protein kinase type 1D (Homo sapiens) (UniProt Q8IU85); conditions: Compound concentration 1000.0 nM
[17] = molecular target: Mitogen-activated protein kinase kinase kinase 1 (Homo sapiens) (UniProt Q13233); conditions: Compound concentration 1000.0 nM
[18] = tested on: Receptor-type tyrosine-protein kinase FLT3 (Homo sapiens), P36888 [UNDEFINED MUTATION]; conditions: Compound concentration 1000.0 nM
[19] = molecular target: Serine/threonine-protein kinase STK11 (Homo sapiens) (UniProt Q15831); conditions: Compound concentration 1000.0 nM
[20] = molecular target: Alpha-2B adrenergic receptor (Homo sapiens) (UniProt P18089); conditions: Compound concentration 10.0 uM
[21] = molecular target: Serine/threonine-protein kinase NLK (Homo sapiens) (UniProt Q9UBE8); conditions: Compound concentration 1000.0 nM
Serine/threonine-protein kinase NLK (Homo sapiens), sequence (Q9UBE8 whole entry): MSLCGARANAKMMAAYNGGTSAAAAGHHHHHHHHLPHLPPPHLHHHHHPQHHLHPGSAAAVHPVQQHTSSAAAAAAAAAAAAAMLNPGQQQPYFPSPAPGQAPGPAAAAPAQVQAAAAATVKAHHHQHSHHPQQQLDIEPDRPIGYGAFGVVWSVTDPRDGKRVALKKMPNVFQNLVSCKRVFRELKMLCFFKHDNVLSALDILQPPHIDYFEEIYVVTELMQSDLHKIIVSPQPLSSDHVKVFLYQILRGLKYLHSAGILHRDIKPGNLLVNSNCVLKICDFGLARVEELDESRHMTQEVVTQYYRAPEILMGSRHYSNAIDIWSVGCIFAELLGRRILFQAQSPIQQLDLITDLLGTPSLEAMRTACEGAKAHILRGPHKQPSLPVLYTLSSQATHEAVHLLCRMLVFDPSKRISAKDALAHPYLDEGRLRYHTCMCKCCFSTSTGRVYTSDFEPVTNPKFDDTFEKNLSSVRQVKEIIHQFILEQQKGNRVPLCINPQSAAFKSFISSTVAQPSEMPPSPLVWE

[22] = molecular target: Mitogen-activated protein kinase kinase kinase kinase 4 (Homo sapiens) (UniProt O95819); conditions: Compound concentration 1000.0 nM
Mitogen-activated protein kinase kinase kinase kinase 4 (Homo sapiens), sequence (O95819 2-1239 limits assumed): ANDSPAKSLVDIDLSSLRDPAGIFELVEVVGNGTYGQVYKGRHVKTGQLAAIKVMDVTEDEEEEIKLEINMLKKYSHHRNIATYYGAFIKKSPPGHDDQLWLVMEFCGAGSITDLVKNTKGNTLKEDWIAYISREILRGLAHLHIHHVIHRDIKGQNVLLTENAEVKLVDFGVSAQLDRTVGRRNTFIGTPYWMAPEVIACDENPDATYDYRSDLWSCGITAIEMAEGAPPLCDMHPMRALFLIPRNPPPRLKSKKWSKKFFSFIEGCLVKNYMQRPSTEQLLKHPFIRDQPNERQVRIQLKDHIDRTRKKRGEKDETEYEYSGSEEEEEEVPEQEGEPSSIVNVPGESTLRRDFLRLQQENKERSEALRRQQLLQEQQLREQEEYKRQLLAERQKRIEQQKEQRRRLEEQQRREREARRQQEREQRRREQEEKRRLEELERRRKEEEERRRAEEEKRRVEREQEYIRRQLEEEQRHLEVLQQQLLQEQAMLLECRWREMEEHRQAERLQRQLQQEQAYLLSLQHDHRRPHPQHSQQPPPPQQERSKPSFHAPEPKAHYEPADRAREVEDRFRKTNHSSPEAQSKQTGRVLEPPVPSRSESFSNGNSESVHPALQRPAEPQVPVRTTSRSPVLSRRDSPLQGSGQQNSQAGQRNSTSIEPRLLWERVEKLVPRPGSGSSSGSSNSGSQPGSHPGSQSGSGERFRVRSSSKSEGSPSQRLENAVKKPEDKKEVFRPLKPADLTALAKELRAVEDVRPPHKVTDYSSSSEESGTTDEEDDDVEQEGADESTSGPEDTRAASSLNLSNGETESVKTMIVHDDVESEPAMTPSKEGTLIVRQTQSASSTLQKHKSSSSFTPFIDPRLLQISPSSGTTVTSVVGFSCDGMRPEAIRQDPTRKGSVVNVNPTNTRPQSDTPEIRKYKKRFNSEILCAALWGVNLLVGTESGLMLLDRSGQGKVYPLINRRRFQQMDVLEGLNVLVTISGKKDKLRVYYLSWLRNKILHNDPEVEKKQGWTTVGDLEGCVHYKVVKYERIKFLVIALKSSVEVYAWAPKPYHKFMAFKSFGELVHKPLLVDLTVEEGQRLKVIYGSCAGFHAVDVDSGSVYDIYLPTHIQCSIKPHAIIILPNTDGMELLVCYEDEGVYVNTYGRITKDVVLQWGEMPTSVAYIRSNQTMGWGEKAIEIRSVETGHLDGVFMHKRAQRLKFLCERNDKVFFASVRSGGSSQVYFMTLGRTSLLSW

[23] = tested on: Tyrosine-protein kinase ABL1 (Homo sapiens), P00519 [H396P]; conditions: Compound concentration 1000.0 nM
[24] = molecular target: Casein kinase I isoform gamma-3 (Homo sapiens) (UniProt Q9Y6M4); conditions: Compound concentration 1000.0 nM
[25] = molecular target: Serine/threonine-protein kinase B-raf (Homo sapiens) (UniProt P15056); conditions: Compound concentration 1000.0 nM
[26] = molecular target: Phosphatidylinositol 4,5-bisphosphate 3-kinase catalytic subunit alpha isoform (Homo sapiens) (UniProt P42336); conditions: Compound concentration 1000.0 nM
[27] = molecular target: Phosphorylase b kinase gamma catalytic chain, skeletal muscle/heart isoform (Homo sapiens) (UniProt Q16816); conditions: Compound concentration 1000.0 nM
Phosphorylase b kinase gamma catalytic chain, skeletal muscle/heart isoform (Homo sapiens), sequence (Q16816 whole entry, looked up, canonical isoform): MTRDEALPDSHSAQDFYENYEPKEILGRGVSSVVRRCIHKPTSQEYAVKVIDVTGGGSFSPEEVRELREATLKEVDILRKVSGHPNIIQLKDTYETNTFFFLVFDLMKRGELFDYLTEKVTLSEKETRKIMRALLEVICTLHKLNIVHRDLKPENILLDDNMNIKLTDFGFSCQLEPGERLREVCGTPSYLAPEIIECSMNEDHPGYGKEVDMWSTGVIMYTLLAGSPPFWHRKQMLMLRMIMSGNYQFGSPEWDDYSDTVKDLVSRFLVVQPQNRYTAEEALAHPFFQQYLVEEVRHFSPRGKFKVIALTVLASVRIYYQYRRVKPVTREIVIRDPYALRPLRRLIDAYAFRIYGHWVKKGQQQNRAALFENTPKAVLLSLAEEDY

[28] = tested on: Mast/stem cell growth factor receptor Kit (Homo sapiens), P10721 [A829P]; conditions: Compound concentration 1000.0 nM
Mast/stem cell growth factor receptor Kit (Homo sapiens), P10721 [A829P], sequence (P10721 whole entry A829P): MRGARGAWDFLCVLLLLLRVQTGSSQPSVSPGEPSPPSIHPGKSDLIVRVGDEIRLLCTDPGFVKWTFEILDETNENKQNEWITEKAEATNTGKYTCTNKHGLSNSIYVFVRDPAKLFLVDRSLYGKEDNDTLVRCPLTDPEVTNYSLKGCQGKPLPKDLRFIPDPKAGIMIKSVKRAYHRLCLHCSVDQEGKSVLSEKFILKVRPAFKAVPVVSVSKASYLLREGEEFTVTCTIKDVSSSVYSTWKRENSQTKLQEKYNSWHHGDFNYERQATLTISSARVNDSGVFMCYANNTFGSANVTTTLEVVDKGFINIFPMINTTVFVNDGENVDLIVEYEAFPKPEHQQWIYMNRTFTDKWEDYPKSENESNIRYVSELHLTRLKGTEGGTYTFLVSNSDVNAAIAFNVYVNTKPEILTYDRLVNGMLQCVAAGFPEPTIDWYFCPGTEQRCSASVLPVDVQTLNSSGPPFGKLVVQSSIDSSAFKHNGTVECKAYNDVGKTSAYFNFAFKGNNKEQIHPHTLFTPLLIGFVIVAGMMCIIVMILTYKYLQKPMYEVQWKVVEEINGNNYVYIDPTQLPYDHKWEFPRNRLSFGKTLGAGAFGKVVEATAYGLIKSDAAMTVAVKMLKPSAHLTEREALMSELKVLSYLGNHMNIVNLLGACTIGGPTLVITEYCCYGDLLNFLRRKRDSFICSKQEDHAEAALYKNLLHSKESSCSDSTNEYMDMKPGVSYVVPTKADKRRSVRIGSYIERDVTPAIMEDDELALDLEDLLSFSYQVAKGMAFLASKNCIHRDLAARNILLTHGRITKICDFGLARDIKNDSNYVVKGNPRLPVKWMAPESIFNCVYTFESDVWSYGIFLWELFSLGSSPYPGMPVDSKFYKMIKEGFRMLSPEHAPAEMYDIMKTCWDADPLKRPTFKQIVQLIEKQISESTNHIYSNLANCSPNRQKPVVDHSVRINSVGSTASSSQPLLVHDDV

[29] = molecular target: Tyrosine-protein kinase Blk (Homo sapiens) (UniProt P51451); conditions: Compound concentration 1000.0 nM
Tyrosine-protein kinase Blk (Homo sapiens), sequence (P51451 2-505 limits assumed): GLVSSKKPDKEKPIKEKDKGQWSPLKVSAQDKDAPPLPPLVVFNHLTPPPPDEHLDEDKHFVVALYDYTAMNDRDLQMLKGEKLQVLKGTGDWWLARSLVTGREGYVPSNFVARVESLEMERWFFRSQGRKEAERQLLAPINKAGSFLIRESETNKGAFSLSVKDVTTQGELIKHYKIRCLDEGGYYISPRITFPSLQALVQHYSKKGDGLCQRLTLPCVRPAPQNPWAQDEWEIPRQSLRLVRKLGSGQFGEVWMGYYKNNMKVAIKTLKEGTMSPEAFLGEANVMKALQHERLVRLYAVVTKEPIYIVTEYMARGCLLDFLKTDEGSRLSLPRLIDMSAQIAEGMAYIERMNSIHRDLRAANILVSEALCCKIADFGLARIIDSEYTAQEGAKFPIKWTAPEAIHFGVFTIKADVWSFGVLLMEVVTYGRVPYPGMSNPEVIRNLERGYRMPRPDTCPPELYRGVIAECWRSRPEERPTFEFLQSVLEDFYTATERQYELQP

[30] = molecular target: Serine/threonine-protein kinase Chk1 (Homo sapiens) (UniProt O14757); conditions: Compound concentration 1000.0 nM
[31] = molecular target: 5'-AMP-activated protein kinase catalytic subunit alpha-2 (Homo sapiens) (UniProt P54646); conditions: Compound concentration 1000.0 nM
[32] = molecular target: Mitogen-activated protein kinase kinase kinase 20 (Homo sapiens) (UniProt Q9NYL2); conditions: Compound concentration 1000.0 nM
[33] = molecular target: SRSF protein kinase 2 (Homo sapiens) (UniProt P78362); conditions: Compound concentration 1000.0 nM
[34] = molecular target: Mitogen-activated protein kinase kinase kinase 3 (Homo sapiens) (UniProt Q99759); conditions: Compound concentration 1000.0 nM
Mitogen-activated protein kinase kinase kinase 3 (Homo sapiens), sequence (Q99759 whole entry): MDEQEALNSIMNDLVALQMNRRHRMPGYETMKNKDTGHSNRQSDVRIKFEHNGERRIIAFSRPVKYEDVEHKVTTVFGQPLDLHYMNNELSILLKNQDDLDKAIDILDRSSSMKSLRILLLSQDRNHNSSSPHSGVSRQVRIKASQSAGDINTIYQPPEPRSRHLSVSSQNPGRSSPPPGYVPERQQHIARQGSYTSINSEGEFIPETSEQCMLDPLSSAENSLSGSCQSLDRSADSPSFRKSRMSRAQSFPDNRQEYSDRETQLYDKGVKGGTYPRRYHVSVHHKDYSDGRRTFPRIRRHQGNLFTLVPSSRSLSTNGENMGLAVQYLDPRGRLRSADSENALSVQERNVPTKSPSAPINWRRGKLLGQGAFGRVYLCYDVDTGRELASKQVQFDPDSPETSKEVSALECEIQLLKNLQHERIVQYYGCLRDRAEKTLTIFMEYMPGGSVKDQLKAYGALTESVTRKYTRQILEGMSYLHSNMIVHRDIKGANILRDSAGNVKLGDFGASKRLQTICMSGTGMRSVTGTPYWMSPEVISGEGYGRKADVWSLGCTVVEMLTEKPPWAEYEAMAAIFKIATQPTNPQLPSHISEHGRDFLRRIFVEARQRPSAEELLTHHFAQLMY

[35] = molecular target: Mast/stem cell growth factor receptor Kit (Homo sapiens) (UniProt P10721); conditions: Compound concentration 1000.0 nM
[36] = molecular target: Mitogen-activated protein kinase kinase kinase kinase 2 (Homo sapiens) (UniProt Q12851); conditions: Compound concentration 1000.0 nM
Mitogen-activated protein kinase kinase kinase kinase 2 (Homo sapiens), sequence (Q12851 whole entry): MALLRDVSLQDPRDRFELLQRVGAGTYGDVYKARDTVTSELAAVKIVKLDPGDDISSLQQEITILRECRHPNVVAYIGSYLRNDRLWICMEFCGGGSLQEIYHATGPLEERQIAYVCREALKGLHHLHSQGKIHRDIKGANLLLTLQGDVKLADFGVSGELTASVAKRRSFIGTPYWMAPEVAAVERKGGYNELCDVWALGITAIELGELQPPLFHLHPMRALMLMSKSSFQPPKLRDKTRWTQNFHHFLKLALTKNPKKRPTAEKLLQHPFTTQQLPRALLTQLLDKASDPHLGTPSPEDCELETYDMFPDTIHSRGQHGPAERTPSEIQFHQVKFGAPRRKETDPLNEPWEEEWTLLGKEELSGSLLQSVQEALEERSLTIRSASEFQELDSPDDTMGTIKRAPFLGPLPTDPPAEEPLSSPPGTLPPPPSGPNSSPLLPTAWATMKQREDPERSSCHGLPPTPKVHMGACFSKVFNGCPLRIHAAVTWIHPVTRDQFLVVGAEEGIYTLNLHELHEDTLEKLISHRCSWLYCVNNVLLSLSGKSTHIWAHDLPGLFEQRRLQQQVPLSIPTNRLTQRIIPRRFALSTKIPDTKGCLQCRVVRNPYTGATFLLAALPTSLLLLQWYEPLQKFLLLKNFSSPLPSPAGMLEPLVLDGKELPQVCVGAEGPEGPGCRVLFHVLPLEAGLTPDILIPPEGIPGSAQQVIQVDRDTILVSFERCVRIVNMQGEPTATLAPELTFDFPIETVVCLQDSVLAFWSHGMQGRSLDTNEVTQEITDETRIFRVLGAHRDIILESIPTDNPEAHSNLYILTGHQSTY

CCC(=O)N[C@H]1CC[C@@H](C(=O)N(C)c2ccc(-c3nc4ccccc4o3)cc2)C1 [BI 99179]
inactive: residual activity [1] 89% | inhibition [2] 21.1% | residual activity [3] 85% | residual activity [4] 61% | inhibition [5] -6.32% | residual activity [6] 80% | residual activity [7] 82% | residual activity [8] 100% | residual activity [9] 91% | residual activity [10] 100% | residual activity [11] 100% | residual activity [12] 100% | residual activity [13] 100% | residual activity [14] 100% | residual activity [15] 76% | residual activity [16] 100% | residual activity [17] 73% | residual activity [18] 84% | residual activity [19] 100% | inhibition [20] 5.31% | residual activity [21] 87% | residual activity [22] 91% | residual activity [23] 88% | residual activity [24] 99% | residual activity [25] 100% | residual activity [26] 94% | residual activity [27] 100% | residual activity [28] 57% | residual activity [29] 97% | residual activity [30] 100% | residual activity [31] 88% | residual activity [32] 89% | residual activity [33] 61% | residual activity [34] 89% | residual activity [35] 84% | residual activity [36] 96%

CCC(=O)N[C@@H]1CC[C@H](C(=O)N(C)c2ccc(-c3nc4ccccc4o3)cc2)C1 [BI 99990]
inactive: residual activity [1] 100% | inhibition [2] 0.94% | residual activity [3] 100% | residual activity [4] 100% | inhibition [5] -6.47% | residual activity [6] 87% | residual activity [7] 100% | residual activity [8] 100% | residual activity [9] 100% | residual activity [10] 98% | residual activity [11] 100% | residual activity [12] 100% | residual activity [13] 99% | residual activity [14] 98% | residual activity [15] 100% | residual activity [16] 100% | residual activity [17] 74% | residual activity [18] 76% | residual activity [19] 51% | inhibition [20] 7.05% | residual activity [21] 100% | residual activity [22] 100% | residual activity [23] 92% | residual activity [24] 100% | residual activity [25] 96% | residual activity [26] 88% | residual activity [27] 100% | residual activity [28] 100% | residual activity [29] 100% | residual activity [30] 100% | residual activity [31] 74% | residual activity [32] 78% | residual activity [33] 100% | residual activity [34] 96% | residual activity [35] 93% | residual activity [36] 100%
